This note sets out measurements from patent US20040138301A1, “Chemical uncouplers for the treatment of obesity” (priority 2002, published 2004).

The test system of series [1] is FSK-4 cells. Nature of the series: Assay (IV): Glucose utilisation in FSK-4 cells. The class given is cell-based. To be noted: FSK-4 cells; for EC50: glucose utilisation, 24 hours incubation, read-out: FSK4 EC50; for Emax: maximal efficacy relative to FCCP, read-out: FSK4 Emax (% of FCCP). The procedure: Assay (IV): Glucose Utilisation in FSK-4 Cells
The assay measures indirectly the activity of the respiratory chain in FSK-4 cells by using D-(6-^3H(N))-glucose. The ^3H-proton will first be released in the TCA cyclus and transported to the respiratory chain where it will be incorporated into water. The water is thereafter separated from the D-(6-^3H(N))-glucose by evaporation. Finally, the radioactivity in the water is determined using a Topcounter.
FSK-4 cells obtained from ATCC (Maryland, USA), are cultured in growth medium (McCoy's medium with the following addition 100 units/ml penicillin and streptomycin and 10% FCS (fetal calf serum)) at 37° C. and 5% CO2. All media are obtained by Gibco (Life Technologies, Maryland, USA) where not otherwise mentioned.
At day zero the cells are harvested using trypsin-EDTA and washed in assay medium (MEM medium with the following addition 1× non-essential amino acids (M7145, 2 mM glutamin, 100 units/ml pencillin and streptomycin, 0.0075% sodium bicarbonate, 1 mM sodium pyrovate and 2% horse serum) using centrifugation. The cells are plated into single StripPlates wells (Corning B.V.Life Sciences, The Netherlands) that are placed into 24-well plates (Corning B.V.Life Sciences, The Netherlands) with a concentration of 1,5×10^4 cells/100 μl assay medium/well. The cells are then incubated at 37° C. and 5% CO2 overnight.
The next day the compounds to be tested are diluted to different concentrations in DMSO (Sigma, Missouri, USA) to 100 times final concentration. They are then diluted to a final concentration in assay medium containing 10 μCi/ml D-(6-^3H(N))-glucose (PerkinElmer Life Sciences Inc., Boston, USA). The medium is removed from the cells and 200 μl of the compound dilutions are added in duplicates. The cells are then incubated for another 24 hours at 37° C. and 5% CO2. Finally the cells are lysed by adding 50 μl 10% TCA (tri-chloroacetatic acid). 300 μl of sterile water is then added to the 24-wells that surrounds the StripPlate wells. The plate is sealed with Top-seal-tape (Packard, PerkinElmer Life Sciences Inc., Boston, USA) and the plate is incubated in a heating cupboard at 50° C. to equilibrium the radioactive water formed in the respiratory chain into the water in the 24-well plate by evaporate. The plates incubate for 8 hours where the heating cupboard is turned off. The top seal is removed when the samples have reached room temperature. One ml scintillation liquid (Packard Microscient, PerkinElmer Life Sciences Inc., Boston, USA) is added to all the samples and the radioactivity is determined using a Topcounter (Packard, PerkinElmer Life Sciences Inc., Boston, USA). Non-specific activity is determined by evaporating 200 μl of the dilution medium containing the D-(6-^3H(N))-glucose into 300 μl sterile water, and total radioactivity is determined by counting 5 μl assay medium with 10 μCi/ml D-(6-^3H(N))-glucose.
All calculations are done using GraphPad Prism 3.0 (GraphPad software, Inc.) From concentration-response curves the half maximal concentration (EC50) and maximal efficacy (Emax) are calculated using equation 1.
Y=Bottom+(Top−Bottom)/(1+10^((LogEc50-X)*slope))
X is the logarithm of the molar concentration of the test compound.
Y is the degree of stimulation caused by the compound measured as percentage of the basal stimulation.
The calculated EC50 value is then used to determine the concentrations used in a study where the Hill slope is calculated.
From the double logarithmic plot of the increase in glucose utilisation and the compound concentration the Hill slope is calculated accordingly to equation 2.
It is presumed, that the maximal increase in the glucose utilisation (as measured in the FSK-4 glucose utilisation assay) is limited by the capacity of the metabolism.

Series [2] relates to HEP-G2 cells. Briefly: cells. To be noted: for HEP-G2 Tox: human, 3 h. The method, boiled down:
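HEP-G2 cells were treated with compound for 3 h at 37 °C in MEM/0.5% BSA containing 10 μCi/ml D-(3-^3H(N))-glucose, then lysed with TCA; ^3H-water released via the respiratory chain was recovered by evaporation at 50 °C and counted. Values are corrected for non-specific and basal counts, expressed as % of maximal FCCP or DNP stimulation, and EC50 is from a variable-slope sigmoidal fit.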

Setting [3] is: Homo sapiens, HepG2, 3 h, read-out: HEP-G2 EC50, HEP-G2 cells, glucose utilisation, 3 hours incubation.
Where [4] appears, read: Homo sapiens, HepG2, read-out: HEP-G2 Emax (% of FCCP), HEP-G2 cells, maximal stimulation relative to FCCP.
The mark [5] stands for this setting: Homo sapiens, HepG2, read-out: HEP-G2 Emax (μM), HEP-G2 cells, concentration at which Emax is achieved (CEmax).

Read-outs that look alike come from different tables or passages of the source.

As to `CC(C)(C)c1cc(C[P+](C2CCCCC2)(C2CCCCC2)C2CCCCC2)cc(C(C)(C)C)c1O` [Example 12, (3,5-Di-Tert-Butyl-4-Hydroxybenzyl)Tricyclohexylphosphonium Bromide], the results for the EC50 in series [1] and in series [2] (setting [3]) were 300 nM and 1200 nM, respectively. The Emax (commonly the greatest response seen or fitted, relative to the assay's reference) in series [1] is 85%; in series [2] (setting [4]), 70%. Also, the EC (Emax) in series [2] (setting [5]) came to 10 µM. In series [2], the “HEP-G2 Tox” value is listed as “Tox 0.03 mM”.

`CCCC[P+](CCCC)(CCCC)Cc1cc(C(C)(C)C)c(O)c(C(C)(C)C)c1.[Br-]` [Example 13, (3,5-Di-Tert-Butyl-4-Hydroxybenzyl)Tributylphosphonium Bromide]: the EC50 – broadly, the midpoint of the concentration-response curve – stood at 1000 nM in series [1] and 2900 nM in series [2] (setting [3]). The maximal effect (Emax) was found to be 85% in series [1] and 70% in series [2] (setting [4]). Besides, the EC (Emax) in series [2] (setting [5]) amounted to 10 µM. For the same molecule, in series [2], the “HEP-G2 Tox” value is recorded as “Tox 0.03 mM”.

Take `CCCCCCCC[P+](CCCCCCCC)(CCCCCCCC)Cc1cc(C(C)(C)C)c(O)c(C(C)(C)C)c1.[Br-]` [Example 14, (3,5-Di-Tert-Butyl-4-Hydroxybenzyl)Trioctylphosphonium Bromide]: the results for the EC50 in series [1] and in series [2] (setting [3]) were 200 nM and 1100 nM, respectively. Also, the Emax in series [1] and in series [2] (setting [4]) was 100% each time. In addition, the EC (Emax) in series [2] (setting [5]) turned out to be 10 µM. Also, the “HEP-G2 Tox” value in series [2] is listed as “Tox 0.01 mM”.

On to `CCOC(=O)/C(C#N)=C/c1cc(C(C)(C)C)c(O)c(C(C)(C)C)c1` [Example 15, 2-Cyano-3-(3,5-Di-Tert-Butyl-4-Hydroxyphenyl)-Acrylic Acid Ethyl Ester], for which the results for the EC50 in series [1] and in series [2] (setting [3]) were 2000 nM and 700 nM, respectively. Moreover, the maximum response (Emax) in series [1] was 65%; in series [2] (setting [4]), 100%. In series [2] (setting [5]), the EC (Emax) was found to be 3 µM.

For `CCOC(=O)C(=Cc1cc(C(C)(C)C)c(O)c(C(C)(C)C)c1)C(=O)OCC` [Example 16, 2-(3,5-Di-Tert-Butyl-4-Hydroxy-Benzylidene)-Malonic Acid Diethyl Ester], the EC50 in series [1] amounted to 30000 nM; in series [2] (setting [3]), 11000 nM. Moreover, the Emax is 45% in series [1] and 100% in series [2] (setting [4]). Also, the EC (Emax) in series [2] (setting [5]) stood at 100 µM.

Take `CC(C)(C)c1cc(C=C2C(=O)c3ccccc3C2=O)cc(C(C)(C)C)c1O` [Example 18, 2-(3,5-Di-Tert-Butyl-4-Hydroxy-Benzylidene)-Indan-1,3-Dione]: the concentration giving a half-maximal response (EC50) was found to be 6000 nM in series [1] and 600 nM in series [2] (setting [3]). In addition, the Emax in series [1] is 100%; in series [2] (setting [4]) it was 80%. The EC (Emax) in series [2] (setting [5]) came out at 3 µM.

As to `N#CC(C#N)=Cc1c(-c2ccc(Cl)cc2)[nH]c2ccccc12` [Example 19, 2-[[2-(4-Chlorophenyl)-1H-Indol-3-Yl]Methylene]Malononitrile], the figures for the EC50 in series [1] and in series [2] (setting [3]) were 1100 nM and 7000 nM, respectively. Besides, the maximal response (Emax) turned out to be 55% in series [1] and 100% in series [2] (setting [4]). Further, the EC (Emax) in series [2] (setting [5]) came to 100 µM.

As for `Clc1ccc(-c2cc3ccccc3[nH]2)cc1` [Example 20, 2-(4-Chlorophenyl)-Indole], the results for the EC50 in series [1] and in series [2] (setting [3]) were 26000 nM and 50000 nM, respectively. Also, the Emax was determined as 90% in series [1] and 55% in series [2] (setting [4]). Further, the EC (Emax) in series [2] (setting [5]) is 300 µM.

With `Cc1c(Cl)cc(C(C)(C)C)c(O)c1C(=O)Nc1ccc(Cl)c(C(F)(F)F)c1` [Example 42, 3-Tert-Butyl-5-Chloro-N-(4-Chloro-3-Trifluoromethyl-Phenyl)-2-Hydroxy-6-Methyl-Benzamide], the EC50 in series [1] was 1100 nM; in series [2] (setting [3]) it was 3300 nM. The maximal response (Emax) in series [1] is 75%; in series [2] (setting [4]), 89%. The EC (Emax) in series [2] (setting [5]) stood at 10 µM.

Consider `Cc1c(Cl)cc(C(C)(C)C)c(O)c1C(=O)Nc1ccc(C#N)c(C(F)(F)F)c1` [Example 43, 3-Tert-Butyl-5-Chloro-N-(4-Cyano-3-Trifluoromethyl-Phenyl)-2-Hydroxy-6-Methyl-Benzamide], for which the half-maximal effective concentration (EC50) in series [1] was 300 nM; in series [2] (Homo sapiens, HepG2, 3 h, read-out: HEP-G2 EC50), 850 nM. Besides, the maximal effect (Emax) was 80% in series [1] and 95% in series [2] (Homo sapiens, HepG2, read-out: HEP-G2 Emax (% of FCCP)). For the same molecule, the EC (Emax) in series [2] (Homo sapiens, HepG2, read-out: HEP-G2 Emax (μM)) was found to be 3 µM.

With `O=C(Nc1ccc([N+](=O)[O-])cc1Cl)c1cccc(-c2ccccc2)c1O` [Example 44, 2-Hydroxy-Biphenyl-3-Carboxylic Acid (2-Chloro-4-Nitro-Phenyl)-Amide], the EC50 turned out to be 3600 nM in series [1]; 2000 nM in series [2] (setting [3]); 1400 nM in series [2] (read-out: HEP-G2 EC50, HEP-G2 cells, glucose utilisation, 3 hours incubation). In addition, the figures for the Emax in series [1] and in series [2] (setting [4]) were 90% and 94%, respectively.

Consider `Cc1c(Cl)cc(C(C)(C)C)c(O)c1C(=O)Nc1cc(C(F)(F)F)cc(C(F)(F)F)c1` [Example 47, N-(3,5-Bis-Trifluoromethyl-Phenyl)-3-Tert-Butyl-5-Chloro-2-Hydroxy-6-Methyl-Benzamide], for which the concentration for a half-maximal effect (EC50) in series [1] is 1000 nM; in series [2] (setting [3]), 700 nM. Further, the Emax in series [1] was 90%; in series [2] (setting [4]), 75%. Further, the EC (Emax) in series [2] (setting [5]) is 10 µM. Besides, the “HEP-G2 Tox” value in series [2] is “Tox 0.1 mM”.

Take `Cc1c(Cl)cc(C(C)(C)C)c(O)c1C(=O)Nc1cc(C(F)(F)F)ccc1F` [Example 48, 3-Tert-Butyl-5-Chloro-N-(2-Fluoro-5-Trifluoromethyl-Phenyl)-2-Hydroxy-6-Methyl-Benzamide]: the half-maximal effective concentration (EC50) in series [1] came out at 2800 nM; in series [2] (setting [3]) it was 3500 nM. The Emax worked out at 85% in series [1] and 95% in series [2] (setting [4]). Moreover, the EC (Emax) in series [2] (setting [5]) was determined as 10 µM. Further, the “HEP-G2 Tox” value in series [2] is recorded as 0.1 mM.

In the case of `Cc1c(Cl)cc(C(C)(C)C)c(O)c1C(=O)Nc1ccc([N+](=O)[O-])c(C(F)(F)F)c1` [Example 49, 3-Tert-Butyl-5-Chloro-2-Hydroxy-6-Methyl-N-(4-Nitro-3-Trifluoromethyl-Phenyl)-Benzamide], the figures for the EC50 in series [1] and in series [2] (setting [3]) were 300 nM and 950 nM, respectively. Also, the maximal response (Emax) came out at 95% in series [1] and 105% in series [2] (setting [4]). Also, in series [2] (setting [5]), the EC (Emax) is 3 µM.

On to `Cc1c(Br)cc(C(C)(C)C)c(O)c1C(=O)Nc1ccc(C#N)cc1Cl` [Example 51, 3-Bromo-5-Tert-Butyl-N-(2-Chloro-4-Cyano-Phenyl)-6-Hydroxy-2-Methyl-Benzamide], for which the EC50 in series [1] is 300 nM; in series [2] (setting [3]) it was 400 nM. The maximal effect (Emax) turned out to be 105% in series [1] and 100% in series [2] (setting [4]). In series [2] (setting [5]), the EC (Emax) is 3 µM.

As to `Cc1c(Br)cc(C(C)(C)C)c(O)c1C(=O)Nc1cc(C(F)(F)F)ccc1Cl` [Example 52, 3-Bromo-5-Tert-Butyl-N-(2-Chloro-5-Trifluoromethyl-Phenyl)-6-Hydroxy-2-Methyl-Benzamide], the EC50 amounted to 2500 nM in series [1] and 2400 nM in series [2] (setting [3]). Also, the Emax turned out to be 75% in series [1] and 95% in series [2] (setting [4]). In addition, the EC (Emax) in series [2] (setting [5]) was 10 µM.
